Key:
[1] = system: HCC1954 breast cancer cell line; conditions: unmodified HCC1954, ER-/HER2+, not TOP2A amplified; cited from earlier work
[2] = system: HCC1954 breast cancer cell line; assay: Cell viability after drug treatment of HCC1954 cells with inducible shRNA knockdown of KDM4B; format: cell-based; conditions: KDM4B knocked down four days, then drug for three days; normalized to DMSO vehicle-only controls; FIG. 26
Method: To functionally evaluate the role of KDM4B expression in anthracycline sensitivity, three inducible shRNA knockdown constructs were used to lower the levels of KDM4B protein in the HCC1954 breast cancer cell line (FIG. 24). […] The expression KDM4B was knocked down for four days, and then the cells were treated with either doxorubicin, etoposide (a non-anthracycline TOP2 inhibitor) or paclitaxel (a taxane commonly used to treat breast cancer that functions via tubulin inhibition) for three days, after which cell viability was measured (FIG. 25). All experiments were normalized to DMSO vehicle-only controls and were performed under both induced and non-induced conditions.

[3] = system: HCC1954 breast cancer cell line; assay: Cell viability after drug treatment of HCC1954 cells with inducible shRNA knockdown of KAT6B; format: cell-based; conditions: three inducible shRNA constructs against KAT6B in HCC1954; FIG. 31
Method: A similar experiment was performed by knocking down KAT6B expression to evaluate the role of KAT6B expression in anthracycline sensitivity. Three inducible shRNA knockdown constructs were used to lower the levels of KAT6B protein in the HCC1954 breast cancer cell line.

| Structure (SMILES) | doxorubicin sensitivity of the HCC1954 cell line [1] | change in drug sensitivity (cell viability) upon knockdown of KDM4B [2] | change in drug sensitivity (cell viability) upon knockdown of KAT6B [3] |
| --- | --- | --- | --- |
| COc1cccc2c1C(=O)c1c(O)c3c(c(O)c1C2=O)C[C@@](O)(C(=O)CO)C[C@@H]3O[C@H]1C[C@H](N)[C@H](O)[C@H](C)O1 [doxorubicin] | doxorubicin-sensitive | induced resistance | induced resistance |
| CC(=O)O[C@H]1C(=O)[C@@]2(C)[C@H]([C@H](OC(=O)c3ccccc3)[C@]3(O)C[C@H](OC(=O)[C@H](O)[C@@H](NC(=O)c4ccccc4)c4ccccc4)C(C)=C1C3(C)C)[C@]1(OC(C)=O)CO[C@@H]1C[C@@H]2O [paclitaxel] | – | remained sensitive | remained sensitive |
| COc1cc([C@@H]2c3cc4c(cc3[C@@H](O[C@@H]3O[C@@H]5CO[C@@H](C)O[C@H]5[C@H](O)[C@H]3O)[C@H]3COC(=O)[C@H]23)OCO4)cc(OC)c1O [etoposide] | – | induced resistance | induced resistance |
